# Patent US20180153995A1, “USE OF ANTIMICROBIAL POLYMERS FOR RE-SENSITIZATION OF MICROORGANISMS UPON EMERGENCE OF RESISTANCE TO ANTI-MICROBIAL AGENTS” (Technion Research & Development Foundation Limited, priority 2008, published 2018)
# Several values for one entry are separate records, joined by “and”; a condition that tells them apart may be missing. Equal values may be shown once. Read-outs that look alike come from different tables or passages of the source.
# How the values were obtained:
# E. coli 14384 = experiment: Antibiotic MIC by microdilution with or without sub-MIC polymer; type: cell-based, Escherichia coli
# Procedure, shortened: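 OD 620 nm after 24 h at 37° C gave the inhibition of proliferation. Bacteria at 10^5 per ml were exposed to 2-fold serial antibiotic dilutions, with or without […].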
# E. coli 16327 = experiment: microbe, parasite or virus in culture
# S. aureus 17314 = experiment: Antibiotic MIC by microdilution with or without sub-MIC polymer; type: cell-based, Staphylococcus aureus
# E. coli 14182 = experiment: as above; type: cell-based, Escherichia coli
# [1] = test system: E. coli K-12 resistant wild type; type: cell-based, Escherichia coli; settings: E. coli AG100 (w.t.)
# S. maltophila 748 = experiment: Antibiotic MIC by microdilution with or without sub-MIC polymer; type: cell-based, Stenotrophomonas maltophila
# [2] = test system: E. coli K-12 efflux knockout mutant; type: cell-based, Escherichia coli; settings: E. coli AG100A (efflux−)
# Procedure, shortened: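 Broth microdilution, inocula 10^5 bacteria/ml, 24 h at 37 °C. Growth read as OD620 against calibration standards.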
smiles,measurement,setting,value
"Cc1onc(-c2ccccc2)c1C(=O)N[C@@H]1C(=O)N2[C@@H]1SC(C)(C)[C@@H]2C(=O)O [Oxacillin, oxacillin]",Antibiotic MIC,E. coli 14384,256 µg/mL and >512 µg/mL
same,Antibiotic MIC,"E. coli 14384; E. coli 14384, +½ MIC C12K(NC8K)5NH2",256 to 512 µg/mL
same,"Antibiotic MIC, None","E. coli 14384; E. coli 14384, antibiotic alone (Table 15)",>512 µg/mL
same,Antibiotic MIC,"E. coli 14384; E. coli 14384, no polymer (None), Table 9",>512 µg/mL
same,Antibiotic MIC,"E. coli 14384; E. coli 14384, no polymer (None), Table 14",>512 µg/mL
same,"Antibiotic MIC in presence of C12K(NC8K)7NH2 (SEQ ID NO: 4), +¼ MIC","E. coli 14384; E. coli 14384, polymer at ¼ of its MIC",>512 µg/mL
same,"Antibiotic MIC in presence of C12K(NC8K)7NH2 (SEQ ID NO: 4), +½ MIC","E. coli 14384; E. coli 14384, polymer at ½ of its MIC",>512 µg/mL
same,"Antibiotic MIC in presence of C12K(NC8K)7NH2 (SEQ ID NO: 4), +⅓ MIC","E. coli 14384; E. coli 14384, polymer at ⅓ of its MIC",>512 µg/mL
same,Antibiotic MIC,E. coli 16327,512 µg/mL and >512 µg/mL
same,Antibiotic MIC,"E. coli 16327; E. coli 16327, +¼ MIC (1.6 μM) C12K(KNC12K)2NH2",>512 µg/mL
same,Antibiotic MIC,"E. coli 16327; E. coli 16327, +½ MIC (3.12 μM) C12K(KNC12K)2NH2",512 µg/mL
same,Antibiotic MIC,"E. coli 16327; E. coli 16327, +⅓ MIC (2.1 μM) C12K(KNC12K)2NH2",>512 µg/mL
same,Antibiotic MIC,"E. coli 16327; E. coli 16327, no polymer (None), Table 9",>512 µg/mL
same,Antibiotic MIC,"E. coli 16327; E. coli 16327, no polymer (None), Table 10",>512 µg/mL
same,Antibiotic MIC,"E. coli 16327; E. coli 16327, no polymer (None), Table 12",>512 µg/mL
same,"MIC, ¼ + MIC OAK","E. coli 16327; E. coli U16327, with C12K(KNC10K)3NH2 (SEQ ID NO: 10) at ¼ of its MIC",>512 µg/mL
same,"MIC, ⅓ + MIC OAK","E. coli 16327; E. coli U16327, with C12K(KNC10K)3NH2 (SEQ ID NO: 10) at ⅓ of its MIC",>512 µg/mL
same,"Antibiotic MIC, None","E. coli 16327; E. coli U-16327, antibiotic alone (Table 15)",>512 µg/mL
same,"Antibiotic MIC in presence of C12K(NC8K)7NH2 (SEQ ID NO: 4), +¼ MIC","E. coli 16327; E. coli U-16327, polymer at ¼ of its MIC",>512 µg/mL
same,"Antibiotic MIC in presence of C12K(NC8K)7NH2 (SEQ ID NO: 4), +½ MIC","E. coli 16327; E. coli U-16327, polymer at ½ of its MIC",512 µg/mL
same,"Antibiotic MIC in presence of C12K(NC8K)7NH2 (SEQ ID NO: 4), +⅓ MIC","E. coli 16327; E. coli U-16327, polymer at ⅓ of its MIC",>512 µg/mL
same,MIC,"E. coli 16327; Escherichia coli, 16327, read-out: MIC, Alone",> 512 µg/mL
same,Antibiotic MIC,S. aureus 17314,0.125 to 0.25 µg/mL
same,Antibiotic MIC,"S. aureus 17314; S. aureus 17314, +¼ MIC (1.6 μM) C12K(KNC12K)2NH2",0.125 to 0.25 µg/mL
same,Antibiotic MIC,"S. aureus 17314; S. aureus 17314, +¼ MIC (1.6 μM) C12KKNC12KNH2",0.25 µg/mL
same,Antibiotic MIC,"S. aureus 17314; S. aureus 17314, +¼ MIC (1.6 μM) C16(9-ene)KKNC12KNH2",0.25 µg/mL
same,Antibiotic MIC,"S. aureus 17314; S. aureus 17314, +½ MIC (3.12 μM) C12K(KNC12K)2NH2",0.125 to 0.25 µg/mL
same,Antibiotic MIC,"S. aureus 17314; S. aureus 17314, +½ MIC (3.12 μM) C12KKNC12KNH2",0.25 µg/mL
same,Antibiotic MIC,"S. aureus 17314; S. aureus 17314, +½ MIC (3.12 μM) C16(9-ene)KKNC12KNH2",0.06 µg/mL
same,Antibiotic MIC,"S. aureus 17314; S. aureus 17314, +⅓ MIC (2.1 μM) C12K(KNC12K)2NH2",0.125 to 0.25 µg/mL
same,Antibiotic MIC,"S. aureus 17314; S. aureus 17314, +⅓ MIC (2.1 μM) C12KKNC12KNH2",0.25 µg/mL
same,Antibiotic MIC,"S. aureus 17314; S. aureus 17314, +⅓ MIC (2.1 μM) C16(9-ene)KKNC12KNH2",0.25 µg/mL
same,Antibiotic MIC,"S. aureus 17314; S. aureus 17314, no polymer (None), Table 9",0.25 µg/mL
same,Antibiotic MIC,"S. aureus 17314; S. aureus 17314, no polymer (None), Table 10",0.25 to 0.5 µg/mL
same,Antibiotic MIC,"S. aureus 17314; S. aureus 17314, no polymer (None), Table 11",0.25 µg/mL
same,Antibiotic MIC,"S. aureus 17314; S. aureus 17314, no polymer (None), Table 12",0.25 µg/mL
same,Antibiotic MIC,E. coli 14182; +½ MIC C12K(NC8K)5NH2,>512 µg/mL
same,"Antibiotic MIC, None",E. coli 14182; antibiotic alone (Table 15),>512 µg/mL
same,Antibiotic MIC,"E. coli 14182; no polymer (None), Table 14",>512 µg/mL
same,"Antibiotic MIC in presence of C12K(NC8K)7NH2 (SEQ ID NO: 4), +¼ MIC",E. coli 14182; polymer at ¼ of its MIC,>512 µg/mL
same,"Antibiotic MIC in presence of C12K(NC8K)7NH2 (SEQ ID NO: 4), +½ MIC",E. coli 14182; polymer at ½ of its MIC,>512 µg/mL
same,"Antibiotic MIC in presence of C12K(NC8K)7NH2 (SEQ ID NO: 4), +⅓ MIC",E. coli 14182; polymer at ⅓ of its MIC,>512 µg/mL
same,"Antibiotic MIC, None",[1]; antibiotic alone (Table 16),512 µg/mL
same,"Antibiotic MIC, None",[1]; antibiotic alone (Table 17),512 µg/mL
same,"Antibiotic MIC in presence of C12K(NC8K)7NH2 (SEQ ID NO: 4), +½ MIC",[1]; polymer at ½ of its MIC (Table 16),32 to 64 µg/mL
same,"Antibiotic MIC in presence of the OAK, +¼ MIC",[1]; the OAK at ¼ of its MIC (Table 17),256 µg/mL
same,"Antibiotic MIC in presence of the OAK, +½ MIC",[1]; the OAK at ½ of its MIC (Table 17),32 to 64 µg/mL
same,Antibiotic MIC,S. maltophila 748; +¼ MIC (1.6 μM) C12K(KNC12K)3NH2,512 µg/mL
same,Antibiotic MIC,S. maltophila 748; +½ MIC (3.12 μM) C12K(KNC12K)3NH2,256 µg/mL
same,Antibiotic MIC,S. maltophila 748; +⅓ MIC (2.1 μM) C12K(KNC12K)3NH2,512 µg/mL
same,Antibiotic MIC,"S. maltophila 748; no polymer (None), Table 13",512 µg/mL
same,"Antibiotic MIC, None",[2]; antibiotic alone (Table 16),0.5 to 1 µg/mL
same,"Antibiotic MIC, None",[2]; antibiotic alone (Table 17),0.5 to 1 µg/mL
same,"Antibiotic MIC in presence of C12K(NC8K)7NH2 (SEQ ID NO: 4), +¼ MIC",[2]; polymer at ¼ of its MIC (Table 16),0.5 to 1 µg/mL
